Structures are written as SMILES. pIC50: −log10 of the molar value.

13 molecules from patent US20230089867A1, “CYCLIC PENTAMER COMPOUNDS AS PROPROTEIN CONVERTASE SUBTILISIN/KEXIN TYPE 9 (PCSK9) INHIBITORS FOR THE TREATMENT OF METABOLIC DISORDER” (Novartis AG, priority 2018, published 2023) can be followed below.

The target in this test is human PCSK9 (Homo sapiens, UniProt Q8NBP7). As to the kind of experiment: PCSK9 ligand binding TR-FRET assay (interference with binding of human PCSK9 to human LDLR). The note with it: for Max % inhibition: PCSK9 FRET assay, efficacy (Amax), 100% = 1 uM unlabeled human PCSK9, 0% = DMSO; for pIC50: TR-FRET, human PCSK9 Alexa Fluor 647 / human LDLR extracellular domain-Europium Kryptate, read-out: PCSK9 FRET Assay IC50. A digest of the protocol:
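Threefold compound dilutions were pre-incubated 30 min with PCSK9, after which 4 nM Europium Kryptate-tagged human LDLR ectodomain was added for a further 2 h.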

Sequence of human PCSK9 (Q8NBP7 153-692): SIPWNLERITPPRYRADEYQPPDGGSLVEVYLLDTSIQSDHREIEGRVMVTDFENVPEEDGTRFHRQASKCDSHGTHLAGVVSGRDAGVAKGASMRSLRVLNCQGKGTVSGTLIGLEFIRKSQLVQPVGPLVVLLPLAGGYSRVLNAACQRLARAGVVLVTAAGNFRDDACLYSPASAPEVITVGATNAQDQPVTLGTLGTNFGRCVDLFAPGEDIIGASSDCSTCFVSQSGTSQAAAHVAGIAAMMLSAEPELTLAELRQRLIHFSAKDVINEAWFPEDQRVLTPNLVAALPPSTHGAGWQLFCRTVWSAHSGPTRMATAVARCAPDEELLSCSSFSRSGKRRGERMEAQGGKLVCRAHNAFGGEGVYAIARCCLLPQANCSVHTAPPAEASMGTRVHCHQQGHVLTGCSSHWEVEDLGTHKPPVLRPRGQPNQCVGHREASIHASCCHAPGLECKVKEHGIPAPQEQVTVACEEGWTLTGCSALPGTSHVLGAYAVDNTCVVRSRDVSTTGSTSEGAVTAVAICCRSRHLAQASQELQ
Sequence of human PCSK9 (Q8NBP7 31-152 partner limits assumed): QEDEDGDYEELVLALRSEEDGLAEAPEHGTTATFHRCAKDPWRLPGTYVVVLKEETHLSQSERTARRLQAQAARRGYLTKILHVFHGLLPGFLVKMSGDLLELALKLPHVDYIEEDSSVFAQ

By pIC50 is commonly meant −log10 of the IC50, conventionally taken in molar units. For the molecule `COC[C@@H]1NC(=O)[C@H](C)N(Cc2c(F)ccc(F)c2Oc2ccc(-c3cnc(CN(C)C)n3C)cc2)C(=O)C[C@@H](Cc2ccccc2)C(=O)N(C)[C@@H](C)CNC(=O)C[C@H](Cc2ccc(Cl)cc2)N(C)C1=O` [Compound 166, (2S,5S,8S,13S,16R)-16-benzyl-8-(4-chlorobenzyl)-1-(2-(4-(2-((dimethylamino)methyl)-1-methyl-1H-imidazol-5-yl)phenoxy)-3,6-difluorobenzyl)-5-(methoxymethyl)-2,7,13,14-tetramethyl-1,4,7,11,14-pentaazacyclooctadecane-3,6,10,15,18-pentaone], the Max % inhibition is 96.70% and the pIC50 was 8.37.

Turning to `COC[C@@H]1NC(=O)[C@H](CO)N(Cc2ccc(Cl)cc2Oc2ccc(-c3cnc(CN(C)C)n3C)cc2)C(=O)C[C@@H](Cc2ccccc2)C(=O)N(C)[C@@H](C)CNC(=O)C[C@H](Cc2ccc(Cl)cc2)N(C)C1=O` [Compound 11, (2S,5S,8S,13S,16R)-16-benzyl-1-(4-chloro-2-(4-(2-((dimethylamino)methyl)-1-methyl-1H-imidazol-5-yl)phenoxy)benzyl)-8-(4-chlorobenzyl)-2-(hydroxymethyl)-5-(methoxymethyl)-7,13,14-trimethyl-1,4,7,11,14-pentaazacyclooctadecane-3,6,10,15,18-pentaone], the Max % inhibition came out at 105.07% and the pIC50 is 8.59.

Turning to `COC[C@@H]1NC(=O)[C@H](C)N(Cc2c(OCC(F)(F)F)cc(Cl)cc2Oc2ccc(-c3cnc(CN(C)C)n3C)cc2)C(=O)CCC(=O)N(C)[C@H]2CCCC[C@@H]2NC(=O)C[C@H](Cc2ccc(Cl)cc2)N(C)C1=O` [Compound 39, (4S,7S,10S,16aS,20aS)-11-(4-chloro-2-(4-(2-((dimethylamino)methyl)-1-methyl-1H-imidazol-5-yl)phenoxy)-6-(2,2,2-trifluoroethoxy)benzyl)-4-(4-chlorobenzyl)-7-(methoxymethyl)-5,10,16-trimethylhexadecahydrobenzo[l][1,4,7,11,14]pentaazacyclooctadecine-2,6,9,12,15(3H)-pentaone], the Max % inhibition worked out at 104.01% and the pIC50 is 9.05.

As for `COC[C@@H]1NC(=O)[C@H](C)N(Cc2ccc(Cl)cc2Oc2ccc(-c3cnc(CN(C)C)n3C)cc2)C(=O)C[C@@H](CC23CC(C2)C3)C(=O)N(C)[C@H]2CCCC[C@@H]2NC(=O)C[C@H](Cc2ccc(Cl)cc2)N(C)C1=O` [Compound 100, (4S,7S,10S,14R,16aS,20aS)-14-(bicyclo[1.1.1]pentan-1-ylmethyl)-11-(4-chloro-2-(4-(2-((dimethylamino)methyl)-1-methyl-1H-imidazol-5-yl)phenoxy)benzyl)-4-(4-chlorobenzyl)-7-(methoxymethyl)-5,10,16-trimethylhexadecahydrobenzo[l][1,4,7,11,14]pentaazacyclooctadecine-2,6,9,12,15(3H)-pentaone], the Max % inhibition stood at 105.41% and the pIC50 is 8.27.

Consider `COC[C@@H]1NC(=O)[C@@H](COC)N(Cc2ccc(Cl)cc2Oc2ccc(-c3cnc(CN(C)C)n3C)cc2)C(=O)C[C@@H](Cc2ccccc2)C(=O)N(C)[C@H]2CCCC[C@@H]2NC(=O)C[C@H](Cc2ccc(Cl)cc2)N(C)C1=O` [Compound 8, (4S,7S,10R,14R,16aS,20aS)-14-benzyl-11-(4-chloro-2-(4-(2-((dimethylamino)methyl)-1-methyl-1H-imidazol-5-yl)phenoxy)benzyl)-4-(4-chlorobenzyl)-7,10-bis(methoxymethyl)-5,16-dimethylhexadecahydrobenzo[l][1,4,7,11,14]pentaazacyclooctadecine-2,6,9,12,15(3H)-pentaone], for which the Max % inhibition is 101.12% and the pIC50 is 8.05.

As to `COC[C@@H]1NC(=O)[C@H](C)N(Cc2ccc(Cl)cc2Oc2ccc(-c3cnc(CN(C)C)n3C)cc2)C(=O)C[C@@H](CC#N)C(=O)N(C)[C@H]2CCCC[C@@H]2NC(=O)C[C@H](Cc2ccc(Cl)cc2)N(C)C1=O` [Compound 89, 2-((4S,7S,10S,14R,16aS,20aS)-11-(4-chloro-2-(4-(2-((dimethylamino)methyl)-1-methyl-1H-imidazol-5-yl)phenoxy)benzyl)-4-(4-chlorobenzyl)-7-(methoxymethyl)-5,10,16-trimethyl-2,6,9,12,15-pentaoxodocosahydrobenzo[l][1,4,7,11,14]pentaazacyclooctadecin-14-yl)acetonitrile], the Max % inhibition worked out at 85.89% and the pIC50 is 8.80.

For `COC[C@@H]1NC(=O)[C@H](CC(=O)N2CC3(COC3)C2)N(Cc2ccc(Cl)cc2Oc2ccc(-c3cnc(CN(C)C)n3C)cc2)C(=O)C[C@@H](Cc2ccccc2)C(=O)N(C)C2CCCCC2NC(=O)C[C@H](Cc2ccc(Cl)cc2)N(C)C1=O` (stereo in doubt) [Compound 106, (4S,7S,10S,14R,16aS,20aS)-14-benzyl-11-(4-chloro-2-(4-(2-((dimethylamino)methyl)-1-methyl-1H-imidazol-5-yl)phenoxy)benzyl)-4-(4-chlorobenzyl)-7-(methoxymethyl)-5,16-dimethyl-10-(2-oxo-2-(2-oxa-6-azaspiro[3.3]heptan-6-yl)ethyl)hexadecahydrobenzo[l][1,4,7,11,14]pentaazacyclooctadecine-2,6,9,12,15(3H)-pentaone], the Max % inhibition is 106.45% and the pIC50 is 8.70.

In the case of `COC[C@@H]1NC(=O)[C@H](C)N(Cc2ccc(Cl)cc2Oc2ccc(-c3cnc(CN(C)C)n3C)cc2)C(=O)C[C@@H](Cc2ccccc2)C(=O)N(C)C[C@H](C)NC(=O)C[C@H](Cc2ccc(Cl)cc2)N(C)C1=O` [Compound 32, (2S,5S,8S,12S,16R)-16-benzyl-1-(4-chloro-2-(4-(2-((dimethylamino)methyl)-1-methyl-1H-imidazol-5-yl)phenoxy)benzyl)-8-(4-chlorobenzyl)-5-(methoxymethyl)-2,7,12,14-tetramethyl-1,4,7,11,14-pentaazacyclooctadecane-3,6,10,15,18-pentaone], the Max % inhibition worked out at 103.15% and the negative-log IC50 (pIC50) is 8.74.

In the case of `COC[C@@H]1NC(=O)[C@H](C)N(Cc2ccc(Cl)cc2Oc2ccc(-c3cnc(CN4CCCC4)n3CCF)cc2)C(=O)C[C@@H](Cc2ccccc2)C(=O)N(C)[C@@H](C)CNC(=O)C[C@H](Cc2ccc(Cl)cc2)N(C)C1=O` [Compound 303, (2S,5S,8S,13S,16R)-16-benzyl-1-(4-chloro-2-(4-(1-(2-fluoroethyl)-2-(pyrrolidin-1-ylmethyl)-1H-imidazol-5-yl)phenoxy)benzyl)-8-(4-chlorobenzyl)-5-(methoxymethyl)-2,7,13,14-tetramethyl-1,4,7,11,14-pentaazacyclooctadecane-3,6,10,15,18-pentaone], the Max % inhibition worked out at 52.60% and the pIC50 was 8.54.

Turning to `C[C@H]1CNC(=O)C[C@H](Cc2ccc(Cl)cc2)N(C)C(=O)[C@H](CO)NC(=O)[C@H](C)N(Cc2ccc(Cl)cc2Oc2ccc(-c3cnc(CN(C)C)n3C)cc2)C(=O)C[C@@H](Cc2ccccc2)C(=O)N1C` [Compound 142, (2S,5S,8S,13S,16R)-16-benzyl-1-(4-chloro-2-(4-(2-((dimethylamino)methyl)-1-methyl-1H-imidazol-5-yl)phenoxy)benzyl)-8-(4-chlorobenzyl)-5-(hydroxymethyl)-2,7,13,14-tetramethyl-1,4,7,11,14-pentaazacyclooctadecane-3,6,10,15,18-pentaone], the Max % inhibition came to 100.91% and the pIC50 is 8.92.

Take `COC[C@@H]1NC(=O)[C@H](C)N(Cc2ccc(Cl)cc2Oc2ccc(-c3cnc(CN(C)C)n3C)cn2)C(=O)C[C@@H](Cc2ccccc2)C(=O)N(C)[C@H]2CCCC[C@@H]2NC(=O)C[C@H](Cc2ccc(Cl)cc2)N(C)C1=O` [Compound 273, (4S,7S,10S,14R,16aS,20aS)-14-benzyl-11-(4-chloro-2-((5-(2-((dimethylamino)methyl)-1-methyl-1H-imidazol-5-yl)pyridin-2-yl)oxy)benzyl)-4-(4-chlorobenzyl)-7-(methoxymethyl)-5,10,16-trimethylhexadecahydrobenzo[l][1,4,7,11,14]pentaazacyclooctadecine-2,6,9,12,15(3H)-pentaone]: the Max % inhibition was found to be 105.53% and the pIC50 is 8.52.

For `COC[C@@H]1NC(=O)[C@H](C)N(Cc2ccc(Cl)cc2Oc2ccc(-n3cnc(CN4CC5(COC5)C4)c3C)cc2)C(=O)C[C@@H](Cc2ccccc2)C(=O)N(C)[C@@H](C)CNC(=O)C[C@H](Cc2ccc(Cl)cc2)N(C)C1=O` [Compound 112, (2S,5S,8S,13S,16R)-1-(2-(4-(4-(2-oxa-6-azaspiro[3.3]heptan-6-ylmethyl)-5-methyl-1H-imidazol-1-yl)phenoxy)-4-chlorobenzyl)-16-benzyl-8-(4-chlorobenzyl)-5-(methoxymethyl)-2,7,13,14-tetramethyl-1,4,7,11,14-pentaazacyclooctadecane-3,6,10,15,18-pentaone], the Max % inhibition is 107.46% and the pIC50 was 8.49.

As to `COC[C@@H]1NC(=O)[C@H](C)N(Cc2ccc(Cl)cc2Oc2ccc(-c3cnc4n3CCN(C(=O)C3CCOC3)C4)cc2)C(=O)C[C@@H](Cc2ccccc2)C(=O)N(C)[C@@H](C)CNC(=O)C[C@H](Cc2ccc(Cl)cc2)N(C)C1=O` (stereo partly drawn) [Compound 133, (2S,5S,8S,13S,16R)-16-benzyl-1-(4-chloro-2-(4-(7-(tetrahydrofuran-3-carbonyl)-5,6,7,8-tetrahydroimidazo[1,2-a]pyrazin-3-yl)phenoxy)benzyl)-8-(4-chlorobenzyl)-5-(methoxymethyl)-2,7,13,14-tetramethyl-1,4,7,11,14-pentaazacyclooctadecane-3,6,10,15,18-pentaone], the Max % inhibition was determined as 93.15% and the pIC50 was 8.24.
